Molecules are shown by their SMILES. Active and inactive are the calls of the source. The calls are words filed in the database; no cut-off is given here.

In one data set the test system is Splenocyte. Description: Improvement in memory response in ovalbumin immunized C57BL/6 mouse splenocytes assessed as increase in IFNgamma level incubated for 72 hrs by ELISA. The class given is functional, cell-based. On the technique in general: ELISA stands for enzyme-linked immunosorbent assay.
Data set [1] has as its system BMDM. Description: Induction of IL-1beta production in C57BL/6 mouse BMDM at 1 nmol incubated for 48 hrs by ELISA. It counts as functional, cell-based.
Data set [2] has as its system BMDM. Description: Induction of IL-6 production in C57BL/6 mouse BMDM at 1 nmol incubated for 48 hrs by ELISA. The class given is functional, cell-based.
In the next data set the test system is HEK293. Description: Induction of IL-8 production in HEK293 cells expressing mouse NOD2 at 5 to 50 uM incubated for 20 hrs by ELISA. The class given is functional, cell-based. Particulars: Homo sapiens, dose 5-50 µM.
Data set [3] deals with BMDM. In words: Induction of IL-23 production in C57BL/6 mouse BMDM at 1 nmol incubated for 48 hrs by ELISA. The class given is functional, cell-based.
The species entered for the next data set is Mus musculus. In words: Adjuvanticity in ovalbumin immunized C57BL/6 mouse assessed as increase in anti-OVA IgG titers at 40 nmol boosted with OVA at 1 week and measured after week 3, 4, 5 by ELISA. It counts as functional, organism-based. As to conditions: time 5.0 weeks.
The next data set deals with 2B4. Description: Induction of NFAT-GFP signal in mouse 2B4 reporter cells expressing mMincle + FcRgamma at 0.1 to 1 nmol incubated for 18 hrs by flow cytometry analysis. The class given is functional, cell-based. Particulars: dose 0.1-1 nmol. In general terms: Flow cytometry measures light scatter and fluorescence of single cells or particles in a stream.
The nature of data set [4]: Toxicity in ovalbumin immunized C57BL/6 mouse assessed as appearance of inflamed skin at tail base at 40 nmol measured after 1 week post immunization. Particulars: in vivo, 168 h, time 1 weeks. The class given is tissue-based.
Data set [5] is described as follows: Toxicity in ovalbumin immunized C57BL/6 mouse assessed as body weight loss at 40 nmol boosted with OVA at 1 week and measured after week 3, 4, 5 and 6. Particulars: in vivo, 1008 h, time 6 weeks.

As to `CCCCCCCCCCCCCCCCCCCOc1ccc(C(=O)OC[C@H]2O[C@H](O[C@H]3O[C@H](COC(=O)c4ccc(OCCCCCCCCCCCCCCCCCC)cc4OCCCCCCCCCCCCCCCCCc4cn(CCCCN(OC)[C@@H]5O[C@H](CO)[C@@H](O)[C@H](O[C@H](C)C(=O)N[C@@H](C)C(=O)N[C@H](CCC(=O)O)C(N)=O)[C@H]5NC(C)=O)nn4)[C@@H](O)[C@H](O)[C@H]3O)[C@H](O)[C@@H](O)[C@@H]2O)c(OCCCCCCCCCCCCCCCCCc2cn(CCCCN(OC)[C@@H]3O[C@H](CO)[C@@H](O)[C@H](O[C@H](C)C(=O)N[C@@H](C)C(=O)N[C@H](CCC(=O)O)C(N)=O)[C@H]3NC(C)=O)nn2)c1`, the result in the data set with Splenocyte, in the data set with BMDM [1], with BMDM [2], in the data set on HEK293, in the data set with BMDM [3] and in the data set listed under Mus musculus was Active. The outcome with 2B4 was Active. Also, the Activity entry in data set [4] is “Toxic”; in [5], “Non-Toxic”.
